Experimental data from patent publication US5440033A, “Indolyl-, pyrrolyl- and pyrazolyl substituted benzazepines” (Schering Corporation, priority 1993, dated 1995).
Where two headings read alike, the source gives them in different places.

Columns and labels:
dopamine D-1 receptor = molecular target: T1, dopamine D-1 receptor (Rattus norvegicus, UniProt P18901); assay: Competitive inhibition assay, displacement of 3H-SCH 23390 (D1), rat striatal tissue; type: binding, rat (male Sprague-Dawley); conditions: 3H-SCH 23390 0.3 nM, rat striatum, pH 7.4, 37° C., 15 minutes
T1 construct: Striatal tissue was excised, pooled, and homogenized; from tissue; host or cells: rat brain striatum (male Sprague-Dawley)
T1 sequence (P18901 whole entry): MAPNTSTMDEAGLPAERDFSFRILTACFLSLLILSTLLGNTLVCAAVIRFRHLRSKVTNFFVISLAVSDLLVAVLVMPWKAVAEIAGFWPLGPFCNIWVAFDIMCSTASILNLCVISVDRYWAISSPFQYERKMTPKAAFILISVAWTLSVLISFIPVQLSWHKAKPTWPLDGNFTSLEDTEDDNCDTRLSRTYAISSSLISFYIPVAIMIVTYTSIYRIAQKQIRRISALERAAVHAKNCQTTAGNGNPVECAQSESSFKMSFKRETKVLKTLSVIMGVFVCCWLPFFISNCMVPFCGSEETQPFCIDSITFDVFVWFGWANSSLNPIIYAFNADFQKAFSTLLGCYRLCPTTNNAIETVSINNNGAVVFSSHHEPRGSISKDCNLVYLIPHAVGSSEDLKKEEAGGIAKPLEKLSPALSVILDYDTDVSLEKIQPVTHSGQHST
Text: (§1) A methodology for characterization of binding and an interpretation of the data are described by Billard et al., Life Sciences 35, 1885 (1984) in which the binding of the benzazepine (R)-(+)-8-chloro-2,3,4,5-tetrahydro-3-methyl-5-phenyl-1H-3-benzazepin-7-olhemimaleate (SCH 23390) to the dopamine D-1 receptor is characterized.
(§2) Tritiated SCH 23390 and tritiated spiperone (a potent D-2 ligand) were obtained as described in the Billard et al. reference supra and serially diluted in 0.05M Tris buffer, pH 7.4, as required. A compound of the invention is diluted in 0.05M Tris buffer, pH 7.4, as required.
(§3) Male Sprague-Dawley rats (200 to 250 g) from Charles River Breeding Laboratories, Mass. were used to obtain brain tissue. The rats were humanely sacrificed and their brains removed and placed on ice. Striatal tissue was excised, pooled, and homogenized (Brinkman Polytron, 10 seconds) in 100 volumes (w/v) of ice cold 50 mM Tris buffer, pH 7.4 (at 25° C.). The homogenate was centrifuged at 20,000×g for 10 minutes. The resultant pellet was rehomogenized in Tris buffer and centrifuged again. The final pellet was resuspended in 50 mM Tris buffer pH 7.4 containing 120 mM NaCl, […], 1 mM CaCl2, and 1 mM MgCl2.
(§4) Polypropylene incubation tubes received 100 μl of the individual test compounds at various concentrations dissolved or suspended in 0.05M Tris, pH 7.4 containing 4 mg/ml methylcellulose, 100 μl of a solution of ^3 H-SCH 23390 in Tris buffer (final reaction mixture concentration=0.3 nM) or 100 μl of a solution of 3H-spiperone in Tris buffer (final concentration=0.2 nM) and 800 μl of tissue suspension (ca. 3 mg/assay). Tubes were incubated at 37° C. for 15 minutes and rapidly vacuum filtered through Whatman GM/B filters and rinsed 4 times with 4 ml of ice cold 50 mM Tris buffer, pH 7.4. The filters were transferred to scintillation vials, equilibrated with 10 ml of scintillant (Scintosol, Isolab, Inc.) for 16 hours at 25° C. and the radioactivity determined in a liquid scintillation counter. Ki values were determined as described by Billard et al. using the relationship Ki =IC50 /(1+([L]/KD)) wherein IC50 =concentration of test drug necessary to displace 50% of specifically bound ^3 H-Sch 23390, [L]=concentration of radioligand used in the assay, and KD =dissociation constant.

D-2 receptor = molecular target: T2, D-2 receptor (Rattus norvegicus, UniProt P61169); assay: Competitive inhibition assay, displacement of 3H-spiperone (D2), rat striatal tissue; type: binding, rat (male Sprague-Dawley); conditions: 3H-spiperone 0.2 nM, rat striatum; for Ki: pH 7.4, 37° C., 15 minutes
T2 construct: Striatal tissue was excised, pooled, and homogenized; from tissue; host or cells: rat brain striatum (male Sprague-Dawley)
T2 sequence (P61169 whole entry): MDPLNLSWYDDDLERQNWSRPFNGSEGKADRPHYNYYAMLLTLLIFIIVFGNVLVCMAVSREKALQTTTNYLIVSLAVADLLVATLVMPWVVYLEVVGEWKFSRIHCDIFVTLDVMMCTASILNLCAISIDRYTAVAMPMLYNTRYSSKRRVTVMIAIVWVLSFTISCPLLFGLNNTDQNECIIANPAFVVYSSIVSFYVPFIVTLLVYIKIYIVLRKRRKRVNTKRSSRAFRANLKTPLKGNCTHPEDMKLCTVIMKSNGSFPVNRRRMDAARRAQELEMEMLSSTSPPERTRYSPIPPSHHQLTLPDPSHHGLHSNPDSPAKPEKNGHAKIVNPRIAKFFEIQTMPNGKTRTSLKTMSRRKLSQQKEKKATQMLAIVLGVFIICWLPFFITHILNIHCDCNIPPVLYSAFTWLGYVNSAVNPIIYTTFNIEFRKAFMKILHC
Text: as §1, §2, §3, §4

[1] = Conditioned avoidance response, monkey (parenthesised entries in the Rat CAR column); type: in vivo
[2] = Conditioned avoidance suppression in rats (CAR); type: in vivo; conditions: rat; for minimal effective dose: read-out: Rat CAR (minimal effective dose, MED)
Protocol: N.Y. Acad. Sci. 66, 740 (1957). A series of experiments was carried out to assess the ability of the compounds of this invention to suppress the conditioned avoidance response (CAR) in rats.
Rats were required to jump onto a platform located 6.75 inches (17.15 cm) above the grid floor of an experimental chamber in response to a 5-second tone to avoid a 10-second foot shock (0.6 ma). Each experimental session consisted of 20 such trials presented at 30-second intervals. A correct CAR is scored whenever the rat jumps onto the platform during the tone (prior to foot shock). An escape response is scored when the rat jumps onto the platform during a shock. A response failure is defined as the lack of an escape response during the 10-second shock period.
Groups of 6-8 rats were trained in two consecutive days (total of 40 trials). Rats that reached criterion on day 2 (correct CARs on 16 or more of the 20 trials) were treated with either a test drug or vehicle on day 3. Suppression of CAR was analyzed statistically using Student's t-test comparing the performances of drug-treated to vehicle-treated rats.

[3] = @ 1 h, lowest dose tested that significantly (P<0.05) reduced avoidance responding

Ki (dopamine D-1 receptor) [nM] | Ki (D-2 receptor) [nM] | Compound | other results
41 | 10000 | CN1CCc2cc(Cl)c(O)cc2C(c2cccn2C)C1 (centres unmarked) [F] | –
127 | > 10000 | Cc1[nH]c2ccccc2c1C1CN(C)CCc2cc(Cl)c(O)cc21 (centres unmarked) [J] | –
607 | – | Cc1cc2c(cc1O)C(n1ccc3ccccc31)CN(C)CC2 (centres unmarked) [B] | IC50 (D-2 receptor; printed as IC50 in the Ki column): > 10000 nM
2.8 | 2450 | Cc1cc(C2CN(C)CCc3cc(Cl)c(O)cc32)c(C)[nH]1 (racemic) [(±)C] | CAR, monkey ([1]; po @ 6 h): 1.5 mpk; minimal effective dose [2, 3]: 10 mg/kg; minimal effective dose ([2]; @ 6 h): 50 mg/kg
41 | 613 | Cc1cc(C2CN(C)CCc3cc(Cl)c(O)cc32)c(C)[nH]1 (single isomer, unassigned; (-)) [(-)E] | –
12 | > 10000 | CN1CCc2cc(Cl)c(O)cc2C(n2cccn2)C1 (centres unmarked) [Compound I] | –
2.2 | 177 | CN1CCc2cc(Cl)c(O)cc2C(c2ccn(C)c2)C1 (centres unmarked) [H] | –
26 | > 10000 | CN1CCc2cc(Cl)c(O)cc2C(n2ccc3ccccc32)C1 (centres unmarked) [A] | –
0.54 | 590 | Cc1cc(C2CN(C)CCc3cc(Cl)c(O)cc32)c(C)[nH]1 (single isomer, unassigned; (+)) [(+)D] | tremors ([2]; 30 po): tremors at 30 po; minimal effective dose [2, 3]: 10 mg/kg
2.8 | 383 | Cc1cc(C2CN(C)CCc3cc(Cl)c(O)cc32)c(C)n1C (centres unmarked) [G] | CAR, monkey ([1]; @ 4 h): 5 mpk; minimal effective dose [2, 3]: 10 mg/kg
55.2 | > 10000 | CN1CCc2cc(Cl)c(O)cc2C(c2c[nH]c3ccccc23)C1 (centres unmarked) [K] | –
